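Protocol summary: plate cells (96-well), add compound at 5 concentrations, incubate 48 h, interpolate endpoints linearly. GI50 = concentration required for 50% inhibition of growth. TGI denotes the concentration required for complete inhibition of growth.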
Legend:
Test in all cases: NCI anticancer screen, dose series, 48 h
786-0 renal = tested on: 786-0 renal
A498 renal = tested on: A498 renal
A549 NSCLC = tested on: A549 NSCLC
ACHN renal = tested on: ACHN renal
BT-549 breast = tested on: BT-549 breast
CAKI-1 renal = tested on: CAKI-1 renal
CCRF-CEM leukemia = tested on: CCRF-CEM leukemia
COLO 205 colon = tested on: COLO 205 colon
DU-145 prostate = tested on: DU-145 prostate
HCC-2998 colon = tested on: HCC-2998 colon
HCT-116 colon = tested on: HCT-116 colon
HCT-15 colon = tested on: HCT-15 colon
HL-60(TB) leukemia = tested on: HL-60(TB) leukemia
HOP-62 NSCLC = tested on: HOP-62 NSCLC
HOP-92 NSCLC = tested on: HOP-92 NSCLC
HS 578T breast = tested on: HS 578T breast
HT29 colon = tested on: HT29 colon
IGROV1 ovarian = tested on: IGROV1 ovarian
K-562 leukemia = tested on: K-562 leukemia
KM12 colon = tested on: KM12 colon
LOX IMVI melanoma = tested on: LOX IMVI melanoma
M14 melanoma = tested on: M14 melanoma
MALME-3M melanoma = tested on: MALME-3M melanoma
MCF7 breast = tested on: MCF7 breast
MDA-MB-231 breast = tested on: MDA-MB-231 breast
MDA-MB-435 = tested on: MDA-MB-435
MOLT-4 leukemia = tested on: MOLT-4 leukemia
NCI-H226 lung = tested on: NCI-H226 lung
NCI-H23 lung = tested on: NCI-H23 lung
NCI-H460 lung = tested on: NCI-H460 lung
NCI-H522 lung = tested on: NCI-H522 lung
NCI/ADR-RES ovarian = tested on: NCI/ADR-RES ovarian
OVCAR-3 ovarian = tested on: OVCAR-3 ovarian
OVCAR-4 ovarian = tested on: OVCAR-4 ovarian
OVCAR-5 ovarian = tested on: OVCAR-5 ovarian
OVCAR-8 ovarian = tested on: OVCAR-8 ovarian
PC-3 prostate = tested on: PC-3 prostate
RPMI-8226 leukemia = tested on: RPMI-8226 leukemia
RXF 393 renal = tested on: RXF 393 renal
SF-268 CNS = tested on: SF-268 CNS
SF-295 CNS = tested on: SF-295 CNS
SF-539 CNS = tested on: SF-539 CNS
SK-MEL-2 melanoma = tested on: SK-MEL-2 melanoma
SK-MEL-28 melanoma = tested on: SK-MEL-28 melanoma
SK-MEL-5 melanoma = tested on: SK-MEL-5 melanoma
SK-OV-3 ovarian = tested on: SK-OV-3 ovarian
SN12C renal = tested on: SN12C renal
SNB-19 CNS = tested on: SNB-19 CNS
SNB-75 CNS = tested on: SNB-75 CNS
SR leukemia = tested on: SR leukemia
SW-620 colon = tested on: SW-620 colon
T-47D breast = tested on: T-47D breast
TK-10 renal = tested on: TK-10 renal
U251 CNS = tested on: U251 CNS
UACC-257 melanoma = tested on: UACC-257 melanoma
UACC-62 melanoma = tested on: UACC-62 melanoma
UO-31 renal = tested on: UO-31 renal

## COc1cc(C2CC(=O)Nc3c2ccc2ccccc32)cc(Br)c1OC (configuration not stated)
786-0 renal
  GI50: 569 nM
  TGI: > 39300 nM
A498 renal
  GI50: 272 nM
  TGI: 2290 nM
A549 NSCLC
  GI50: 549 nM
  TGI: > 49700 nM
ACHN renal
  GI50: 798 nM
  TGI: > 100000 nM
BT-549 breast
  GI50: 384 nM
  TGI: 17500 nM
CAKI-1 renal
  GI50: 375 nM
  TGI: > 100000 nM
CCRF-CEM leukemia
  GI50: 292 nM
  TGI: 1410 nM
COLO 205 colon
  GI50: 369 nM
  TGI: 1350 nM
DU-145 prostate
  GI50: 653 nM
  TGI: > 38200 nM
HCC-2998 colon
  GI50: 840 nM
  TGI: > 29900 nM
HCT-116 colon
  GI50: 373 nM
  TGI: > 34700 nM
HCT-15 colon
  GI50: 445 nM
  TGI: > 90500 nM
HL-60(TB) leukemia
  GI50: 212 nM
  TGI: 462 nM
HOP-62 NSCLC
  GI50: 753 nM
  TGI: > 100000 nM
HOP-92 NSCLC
  GI50: 176 nM
  TGI: 2420 nM
HS 578T breast
  GI50: 376 nM
  TGI: > 23200 nM
HT29 colon
  GI50: 370 nM
  TGI: 18200 nM
IGROV1 ovarian
  GI50: 860 nM
  TGI: > 42300 nM
K-562 leukemia
  GI50: 349 nM
  TGI: > 75700 nM
KM12 colon
  GI50: 532 nM
  TGI: > 41200 nM
LOX IMVI melanoma
  GI50: 452 nM
  TGI: > 33500 nM
M14 melanoma
  GI50: 308 nM
  TGI: 2700 nM
MALME-3M melanoma
  GI50: 582 nM
  TGI: > 70600 nM
MCF7 breast
  GI50: 343 nM
  TGI: > 40600 nM
MDA-MB-231 breast
  GI50: 2830 nM
  TGI: > 46700 nM
MDA-MB-435
  GI50: 138 nM
  TGI: 464 nM
MOLT-4 leukemia
  GI50: 450 nM
  TGI: 12400 nM
NCI-H226 lung
  GI50: 6400 nM
  TGI: > 100000 nM
NCI-H23 lung
  GI50: 565 nM
  TGI: > 100000 nM
NCI-H460 lung
  GI50: 368 nM
  TGI: > 20200 nM
NCI-H522 lung
  GI50: 410 nM
  TGI: 8420 nM
NCI/ADR-RES ovarian
  GI50: 279 nM
  TGI: 1130 nM
OVCAR-3 ovarian
  GI50: 309 nM
  TGI: 809 nM
OVCAR-4 ovarian
  GI50: 3640 nM
  TGI: > 100000 nM
OVCAR-5 ovarian
  GI50: 2010 nM
  TGI: > 79300 nM
OVCAR-8 ovarian
  GI50: 772 nM
  TGI: > 51100 nM
PC-3 prostate
  GI50: 490 nM
  TGI: > 100000 nM
RPMI-8226 leukemia
  GI50: 562 nM
  TGI: 24100 nM
RXF 393 renal
  GI50: 780 nM
  TGI: 7050 nM
SF-268 CNS
  GI50: 933 nM
  TGI: > 100000 nM
SF-295 CNS
  GI50: 316 nM
SF-539 CNS
  GI50: 583 nM
  TGI: 15100 nM
SK-MEL-2 melanoma
  GI50: 695 nM
  TGI: > 100000 nM
SK-MEL-28 melanoma
  GI50: 805 nM
  TGI: > 100000 nM
SK-MEL-5 melanoma
  GI50: 414 nM
  TGI: 9930 nM
SK-OV-3 ovarian
  GI50: 507 nM
  TGI: > 22700 nM
SN12C renal
  GI50: 1360 nM
  TGI: > 43600 nM
SNB-19 CNS
  GI50: 11700 nM
  TGI: > 100000 nM
SNB-75 CNS
  GI50: 224 nM
  TGI: 2430 nM
SR leukemia
  GI50: 350 nM
  TGI: 16700 nM
SW-620 colon
  GI50: 359 nM
  TGI: > 100000 nM
T-47D breast
  GI50: 811 nM
  TGI: > 100000 nM
TK-10 renal
  GI50: 13400 nM
  TGI: > 100000 nM
U251 CNS
  GI50: 433 nM
  TGI: > 37900 nM
UACC-257 melanoma
  GI50: 504 nM
  TGI: 68100 nM
UACC-62 melanoma
  GI50: 540 nM
UO-31 renal
  GI50: 2240 nM
  TGI: > 34500 nM

From PubChem BioAssay (NCI)
